In brackets after ≈: the same amount, converted by molar mass. Like-named read-outs stand apart in the source and are kept apart here.
Assays:
Assay type in all cases: cell-based
[1] = system: S. aureus (UAMS-1625 strain); assay: MIC by broth microdilution against S. aureus; details: Staphylococcus aureus, read-out: MIC S. aureus
M. xenopi (ATCC 19250) = assay: MIC against M. xenopi in CAMHB + ADC; details: Mycobacterium xenopi
[2] = system: A. baumannii (HUMC1 strain); assay: MIC by broth microdilution against A. baumannii in RPMI + 10% FCS; details: Acinetobacter baumannii, read-out: MIC A. baumannii
M. kansasii (ATCC 12478) = assay: MIC against M. kansasii in CAMHB + ADC; details: Mycobacterium kansasii
M. avium (ATCC 25291) = assay: MIC against M. avium in CAMHB + ADC; details: Mycobacterium avium
[3] = system: M. abscessus subsp. abscessus ATCC 19977; assay: MIC against M. abscessus in Middlebrook 7H9 + ADC; details: Mycobacteroides abscessus
[4] = ATCC19250, ATCC 19250, CAMHB + ADC (5%), read-out: MIC M. xenopi
[5] = ATCC12478, ATCC 12478, CAMHB + ADC (5%), read-out: MIC M. kansasii
[6] = ATCC25291, ATCC 25291, CAMHB + ADC (5%), read-out: MIC M. avium
[7] = ATCC19977, ATCC 19977, 7H9 + ADC, read-out: MIC M. abscessus
[8] = ATCC19250, read-out: MIC M. xenopi
[9] = ATCC12478, read-out: MIC M. kansasii
[10] = ATCC19977, read-out: MIC M. abscessus

SMILES: CO[C@H]1/C=C/O[C@@]2(C)Oc3c(C)c(O)c4c(c3C2=O)C2=NC3(CCN(CC(C)C)CC3)NC2=C(NC(=O)/C(C)=C\C=C\[C@H](C)[C@H](O)[C@@H](C)[C@@H](O)[C@@H](C)[C@H](OC(=O)CC(=O)N2CCCN(c3ncccn3)CC2)[C@@H]1C)C4=O [Compound 124]
- MIC [1]: 0.03 µg/mL (≈ 0.0285 µM)
- MIC (M. xenopi (ATCC 19250); [4]): 0.125 µg/mL
- MIC ([2]; HUMC1 strain, RPMI + 10% FCS): ≤ 0.002 µg/mL
- MIC (M. kansasii (ATCC 12478); [5]): 0.008 µg/mL
- MIC (M. avium (ATCC 25291); [6]): 0.125 µg/mL
- MIC [3, 7]: 0.125 µg/mL

SMILES: CO[C@H]1/C=C/O[C@@]2(C)Oc3c(C)c(O)c4c(c3C2=O)C2=NC3(CCN(CC(C)C)CC3)NC2=C(NC(=O)/C(C)=C\C=C\[C@H](C)[C@H](O)[C@@H](C)[C@@H](O)[C@@H](C)[C@H](OC(=O)CC(=O)N2CCC(Nc3cccnc3)CC2)[C@@H]1C)C4=O [Compound 109]
- MIC [1]: 0.06 µg/mL (≈ 0.0571 µM)
- MIC (M. xenopi (ATCC 19250); [8]): 0.25 µg/mL
- MIC [2]: 0.004 µg/mL
- MIC (M. kansasii (ATCC 12478); [9]): 0.03 µg/mL
- MIC (M. avium (ATCC 25291); ATCC25291, read-out: MIC M. avium): 1 µg/mL
- MIC [3, 10]: 0.25 µg/mL

SMILES: CO[C@H]1/C=C/O[C@@]2(C)Oc3c(C)c(O)c4c(c3C2=O)C2=NC3(CCN(CC(C)C)CC3)NC2=C(NC(=O)/C(C)=C\C=C\[C@H](C)[C@H](O)[C@@H](C)[C@@H](O)[C@@H](C)[C@H](OC(=O)CC(=O)N2CCCN(c3ccccn3)CC2)[C@@H]1C)C4=O [Compound 122]
- MIC [1]: 0.06 µg/mL (≈ 0.0571 µM)
- MIC (M. xenopi (ATCC 19250); [4]): 0.03 µg/mL
- MIC ([2]; HUMC1 strain, RPMI + 10% FCS): ≤ 0.002 µg/mL
- MIC (M. kansasii (ATCC 12478); [5]): 0.002 µg/mL
- MIC (M. avium (ATCC 25291); [6]): 0.125 µg/mL
- MIC [3, 7]: 0.125 µg/mL

SMILES: CO[C@H]1/C=C/O[C@@]2(C)Oc3c(C)c(O)c4c(c3C2=O)C2=NC3(CCN(CC(C)C)CC3)NC2=C(NC(=O)/C(C)=C\C=C\[C@H](C)[C@H](O)[C@@H](C)[C@@H](O)[C@@H](C)[C@H](OC(=O)CC(=O)N2CCC3C(CCCN3Cc3ccccc3)C2)[C@@H]1C)C4=O (stereo partly drawn) [Compound 68]
- MIC [1]: 0.5 µg/mL (≈ 0.453 µM)
- MIC (M. xenopi (ATCC 19250); [4]): 0.125 µg/mL
- MIC ([2]; HUMC1 strain, RPMI + 10% FCS): 0.03 µg/mL
- MIC (M. kansasii (ATCC 12478); [5]): 0.001 µg/mL
- MIC (M. avium (ATCC 25291); [6]): 0.03 µg/mL
- MIC [3, 7]: 0.25 µg/mL

SMILES: COc1cc(NC2CCN(C(=O)CC(=O)O[C@H]3[C@H](C)[C@H](O)[C@H](C)[C@@H](O)[C@@H](C)/C=C/C=C(/C)C(=O)NC4=C5NC6(CCN(CC(C)C)CC6)N=C5c5c(c(O)c(C)c6c5C(=O)[C@@](C)(O/C=C/[C@H](OC)[C@H]3C)O6)C4=O)CC2)cc(OC)c1 [Compound 106]
- MIC [1]: 0.25 µg/mL (≈ 0.225 µM)
- MIC (M. xenopi (ATCC 19250); [4]): 0.125 µg/mL
- MIC ([2]; HUMC1 strain, RPMI + 10% FCS): 0.008 µg/mL
- MIC (M. kansasii (ATCC 12478); [5]): 0.03 µg/mL
- MIC (M. avium (ATCC 25291); [6]): 0.5 µg/mL
- MIC [3, 7]: 0.25 µg/mL

SMILES: CO[C@H]1/C=C/O[C@@]2(C)Oc3c(C)c(O)c4c(c3C2=O)C2=NC3(CCN(CC(C)C)CC3)NC2=C(NC(=O)/C(C)=C\C=C\[C@H](C)[C@H](O)[C@@H](C)[C@@H](O)[C@@H](C)[C@H](OC(=O)CC(=O)N2CCC3(CC2)Cc2ccccc2C3)[C@@H]1C)C4=O [Compound 52]
- MIC [1]: 0.5 µg/mL (≈ 0.472 µM)
- MIC (M. xenopi (ATCC 19250); [4]): 0.03 µg/mL
- MIC ([2]; HUMC1 strain, RPMI + 10% FCS): 0.016 µg/mL
- MIC (M. kansasii (ATCC 12478); [5]): 0.002 µg/mL
- MIC (M. avium (ATCC 25291); [6]): 0.03 µg/mL
- MIC [3, 7]: 0.125 µg/mL

SMILES: CO[C@H]1/C=C/OC2(C)Oc3c(C)c(O)c4c(c3C2=O)C2=NC3(CCN(CC(C)C)CC3)NC2=C(NC(=O)/C(C)=C\C=C\[C@H](C)[C@H](O)[C@@H](C)[C@@H](O)[C@@H](C)[C@H](OC(=O)CC(=O)N2C3CCC2CC(c2ccccc2)C3)[C@@H]1C)C4=O (stereo partly drawn) [Compound 102]
- MIC [1]: 0.5 µg/mL (≈ 0.472 µM)
- MIC (M. xenopi (ATCC 19250); [8]): 0.06 µg/mL
- MIC [2]: 0.03 µg/mL
- MIC (M. kansasii (ATCC 12478); [9]): 0.008 µg/mL
- MIC (M. avium (ATCC 25291); [6]): 0.03 µg/mL
- MIC [3, 10]: 0.25 µg/mL

SMILES: CO[C@H]1/C=C/OC2(C)Oc3c(C)c(O)c4c(c3C2=O)C2=NC3(CCN(CC(C)C)CC3)NC2=C(NC(=O)/C(C)=C\C=C\[C@H](C)[C@H](O)[C@@H](C)[C@@H](O)[C@@H](C)[C@H](OC(=O)CC(=O)NCCCN(C)c2ccccc2)[C@@H]1C)C4=O (stereo partly drawn) [Compound 97]
- MIC [1]: 0.25 µg/mL (≈ 0.241 µM)
- MIC (M. xenopi (ATCC 19250); [4]): 0.06 µg/mL
- MIC ([2]; HUMC1 strain, RPMI + 10% FCS): 0.008 µg/mL
- MIC (M. kansasii (ATCC 12478); [5]): 0.004 µg/mL
- MIC (M. avium (ATCC 25291); [6]): 0.125 µg/mL
- MIC [3, 7]: 0.25 µg/mL

SMILES: CO[C@H]1/C=C/O[C@@]2(C)Oc3c(C)c(O)c4c(c3C2=O)C2=NC3(CCN(CC(C)C)CC3)NC2=C(NC(=O)/C(C)=C\C=C\[C@H](C)[C@H](O)[C@@H](C)[C@@H](O)[C@@H](C)[C@H](OC(=O)CC(=O)N2CCCN(c3cccc(C(F)(F)F)n3)CC2)[C@@H]1C)C4=O [Compound 123]
- MIC [1]: 0.5 µg/mL (≈ 0.447 µM)
- MIC (M. xenopi (ATCC 19250); [4]): 0.125 µg/mL
- MIC ([2]; HUMC1 strain, RPMI + 10% FCS): 0.25 µg/mL
- MIC (M. kansasii (ATCC 12478); [5]): 0.008 µg/mL
- MIC (M. avium (ATCC 25291); [6]): 0.06 µg/mL
- MIC [3, 7]: 0.25 µg/mL

Reference: US20250051356A1, “RIFABUTIN ANALOGS FOR THE TREATMENT OF DISEASE” (priority 2021, published 2025)
